Literature values, collected in US6498171B2, “Hydroxyomeprazole compositions” (Sepracor Inc., priority 1998, dated 2002).

Experiments:
[1] = test system: isolated gastric glands; conditions: read-out: IC50, inhibitory effect on aminopyrine uptake
[2] = humans
[3] = poor metabolizers vs extensive metabolizers, serum

SMILES	IC50 [1] [µM]	Cmax is at (time) [2] [h]	serum half-life ([2]; highly variable) [min]	8-hour AUC, poor metabolizers relative to extensive metabolizers [3]
COc1ccc2[nH]c([S+]([O-])Cc3ncc(CO)c(OC)c3C)nc2c1 (racemic) [racemic hydroxyomeprazole]	33			
COc1ccc2[nH]c([S+]([O-])Cc3ncc(C)c(OC)c3C)nc2c1 (racemic) [racemic omeprazole, Omeprazole]	0.48	0.5 to 3.5	30 to 60	
COc1ccc2nc(S(=O)(=O)Cc3ncc(C)c(OC)c3C)[nH]c2c1 [omeprazole sulfone]				more than 10 times higher
